Test results published in EP0053325A1, “Antimicrobic triazole derivatives” (BAYER AG, priority 1980, dated 1982).

Experiments:
Candida = assay: Antimycotic in-vivo activity (oral) in mouse candidosis; conditions: Mäuse SPF-CF1 infected i.v. with 1 - 2 x 10^6 Candida-Zellen, 50 - 100mg/ kg one hour before and seven hours after infection, survival, compared with (A) and (B)
Procedure: Mäuse vom Typ SPF-CF1 wurden intravenös mit 1 - 2 x 10^6 logarithmisch wachsenden Candida-Zellen, die in physiologischer Kochsalzlösung suspendiert werden, infiziert. Eine Stunde vor und sieben Stunden nach der Infektion werden die Tiere mit jeweils 50 - 100mg/ kg Körpergewicht der Präparate oral behandelt.
Unbehandelte Tiere starben 3 bis 6 Tage post infektionen. Die Ueberlebensrate am 6.Tag post infektionem betrug bei unbehandelten Kontrolltieren etwa 5 %. In diesem Test zeigen z.B. die erfindungsgemäßen Verbindungen 3, 9.

[1] = test system: Dermatophyten und Schimmelpilze; Hefen; assay: Antimycotic in-vitro activity, serial dilution test; assay type: cell-based; conditions: Reihenverdünnungstest, 5 x 10^4 Keimen/ml Substrat, 20°C, 24 bis 96 Stunden; compared with prior-art compounds (A) and (B)
Procedure: Die in-vitro-Prüfungen wurden im Reihenverdünnungstest mit Keiminokula von durchschnittlich 5 x 10^4 Keimen/ml Substrat durchgeführt. Als Nährmedium dienten • a) für Dermatophyten und Schimmelpilze: Sabourand's milieu d'épreuve • b) für Hefen: Fleischextrakt-Traubenzucker-Bouillon.
Die Bebrütungstemperatur betrug 20°C, die Bebrütungsdauer lag bei 24 bis 96 Stunden.

CC(C)(C)C(O)/C(=C\c1ccc([N+](=O)[O-])cc1)n1cncn1 (stereo not drawn) [Beispiel 10]
Wirkung (Candida): bessere Wirkung als die aus dem Stand der Technik bekannten Verbindungen (A) und (B)
antimykotische Wirkung [1]: bessere antimykotische Wirkung als die aus dem Stand der Technik bekannten Verbindungen (A) und (B)

CC(C)(C)C(O)/C(=C\c1ccc(OC(F)(F)F)cc1)n1cncn1 (stereo not drawn) [Beispiel 14]
Wirkung (Candida): bessere Wirkung als die aus dem Stand der Technik bekannten Verbindungen (A) und (B)
antimykotische Wirkung [1]: bessere antimykotische Wirkung als die aus dem Stand der Technik bekannten Verbindungen (A) und (B)

CC(C)(C)C(O)/C(=C/c1ccc([N+](=O)[O-])cc1)n1cncn1 (stereo not drawn) [Beispiel 9]
Wirkung (Candida): bessere Wirkung als die aus dem Stand der Technik bekannten Verbindungen (A) und (B)

CC(C)(C)C(O)/C(=C\c1ccc(C(F)(F)F)cc1Cl)n1cncn1 (stereo not drawn) [Beispiel 12]
Wirkung (Candida): bessere Wirkung als die aus dem Stand der Technik bekannten Verbindungen (A) und (B)
antimykotische Wirkung [1]: bessere antimykotische Wirkung als die aus dem Stand der Technik bekannten Verbindungen (A) und (B)

CC(C)(C)C(O)C(=Cc1ccc(C(F)(F)F)cc1)n1cncn1 (stereo not drawn) [Beispiel 3, 4,4-Dimethyl-2-(1,2,4-triazol-1-yl)-1-(4-trifluormethylphenyl)-1-penten-3-ol]
Wirkung (Candida): bessere Wirkung als die aus dem Stand der Technik bekannten Verbindungen (A) und (B)
antimykotische Wirkung [1]: bessere antimykotische Wirkung als die aus dem Stand der Technik bekannten Verbindungen (A) und (B)

CC(C)(C)C(O)/C(=C\c1ccccc1C(F)(F)F)n1cncn1 (stereo not drawn) [Beispiel 2, 4.4-Dimethyl-2-(1,2,4-triazol-1-yl)-1-(2-trifluormethylphenyl)-1-penten-3-ol]
antimykotische Wirkung [1]: bessere antimykotische Wirkung als die aus dem Stand der Technik bekannten Verbindungen (A) und (B)

CC(C)(C)C(O)/C(=C\c1ccc(OC(F)(F)F)c(Cl)c1)n1cncn1 (stereo not drawn) [Beispiel 22]
antimykotische Wirkung [1]: bessere antimykotische Wirkung als die aus dem Stand der Technik bekannten Verbindungen (A) und (B)

CC(C)(C)C(O)/C(=C\c1ccc(C(F)(F)F)c(Cl)c1)n1cncn1 (stereo not drawn) [Beispiel 20]
antimykotische Wirkung [1]: bessere antimykotische Wirkung als die aus dem Stand der Technik bekannten Verbindungen (A) und (B)

CC(C)(C)C(O)/C(=C\c1ccc(SC(F)(F)F)cc1)n1cncn1 (stereo not drawn) [Beispiel 16]
antimykotische Wirkung [1]: bessere antimykotische Wirkung als die aus dem Stand der Technik bekannten Verbindungen (A) und (B)

CC(C)(C)C(O)/C(=C\c1ccc(C(F)(F)F)cc1)n1cncn1 (stereo not drawn) [Beispiel 18]
Wirkung (Candida): bessere Wirkung als die aus dem Stand der Technik bekannten Verbindungen (A) und (B)
antimykotische Wirkung [1]: bessere antimykotische Wirkung als die aus dem Stand der Technik bekannten Verbindungen (A) und (B)
